In this assay the target is T1, HDM2 (Homo sapiens, UniProt Q00987).
T1 construct: Thioredoxin (N); made in house; host or cells: E. coli strain BL21(DE3)Rosetta
Briefly: HDM2 FRET assay (inhibition of binding of FITC labeled p53-pocket peptide to HDM2). The conditions noted are these: read-out: FRET IC50. The procedure, abridged: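 Signal is read as the 520/495 nm emission ratio and converted to percent inhibition; nonlinear sigmoidal regression yields IC50. The assay mixes HDM2 (0.5 nM), FITC-p53 peptide (3 nM) and Tb anti-His antibody (0.25 nM) at 0.1% DMSO.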

Where [1] appears, read: 0.5 nM HDM2 (residues 17 to 125), 3nM peptide, two hour incubation at room temperature.

Like-named read-outs stand apart in the source and are kept apart here.

T1 sequence (Q00987 17-125): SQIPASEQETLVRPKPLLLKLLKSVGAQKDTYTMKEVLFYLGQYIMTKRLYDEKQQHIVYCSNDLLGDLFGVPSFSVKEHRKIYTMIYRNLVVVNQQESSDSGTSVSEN

With `C[C@H]1CC[C@H](Cn2c(N3CCOC[C@H]3c3ccccc3)nc3nc(-c4noc(=O)[nH]4)nc(N4CCCCC4C4CCC4)c32)CC1` (stereo partly drawn) [Example 11.81, 3-{6-(2-cyclobutylpiperidin-1-yl)-7-[(trans-4-methylcyclohexyl)methyl]-8-[(3R)-3-phenylmorpholin-4-yl]-7H -purin-2-yl}-1,2,4-oxadiazol-5(4H)-one], the concentration for half-maximal inhibition (IC50) (Table 11) turned out to be 483 nM.

For the molecule `CC(C)(CO)Nc1nc2nc(-c3noc(=O)[nH]3)nc(-c3cccc(Cl)c3)c2n1C[C@H]1CC[C@H](C)CC1` [Example 16.41, 3-{6-(3-chlorophenyl)-8-[(2-hydroxy-1,1-dimethylethyl)amino] -7-[(trans-4-methylcyclohexyl)methyl]-7H-purin-2-yl}-1,2,4-oxadiazol-5(4H)-one], the IC50 under setting [1] came to 17.8 nM.

Regarding `Cc1cccc(-c2nc3nc(C(=O)O)nc(NC4CCCC4)c3n2Cc2ccc(C(F)(F)F)cc2)c1` [Example 6.22, 6-(cyclopentylamino)-8-(3-methylphenyl)-7-[4-(trifluoromethyl)benzyl]-7H-purine-2-carboxylic acid], the half-maximal inhibitory concentration (IC50) (Table 6) amounted to 649 nM.

On to `C[C@H]1CC[C@H](Cn2c(N[C@@H](CO)c3ccccc3)nc3nc(-c4noc(=O)[nH]4)nc(-c4cccc(Cl)c4)c32)CC1` [Example 16.38, 3-{6-(3-chlorophenyl)-8-{[(1R)-2-hydroxy-1-phenylethyl]amino}-7-[(trans-4-methylcyclohexyl)methyl]-7H-purin-2-yl}-1,2,4-oxadiazol-5(4H)-one], for which the IC50 under setting [1] is 1.95 nM.

On to `CC(C)COC(C)c1nc2nc(C(=O)O)nc(N[C@H](C)C3CCC3)c2n1Cc1ccc(C(F)(F)F)cc1` (stereo partly drawn) [Example 10.5, 6-(((R)-1-cyclobutylethyl)amino)-8-(1-isobutoxyethyl)-7-(4-(trifluoromethyl)benzyl)-7H-purine-2-carboxylic acid], for which the half-inhibitory concentration (IC50) (Table 10) was 39.4 nM.

Regarding `C[C@@H](Nc1nc(C(=O)O)nc2nc(C3(c4ccccc4)CCC3)n(C[C@H]3CC[C@H](C)CC3)c12)C1CCC1` [Example 20.1, 6-{[(1R)-1-cyclobutylethyl]amino}-7-[(trans-4-methylcyclohexyl)methyl]-8-(1-phenylcyclobutyl)-7H-purine-2-carboxylic acid], the half-maximal inhibitory concentration (IC50) (Table 20) was found to be 1.46 nM.

As for `C[C@@H](Nc1nc(C(=O)O)nc2nc(N3CCCCC3C3CCCCC3)n(C[C@H]3CC[C@H](C)CC3)c12)C1CCC1` (stereo partly drawn) [Example 11.4, 6-(((R)-1-cyclobutylethyl)amino)-8-(2-cyclohexylpiperidin-1-yl)-7-((trans-4-methylcyclohexyl)methyl)-7H-purine-2-carboxylic acid], under “Table 11”, the half-maximal inhibitory concentration (IC50) worked out at 1.56 nM.

On to `Cc1cccc(-c2nc3nc(C(=O)O)nc(N(C)CC(C)(C)C)c3n2Cc2ccc(C(F)(F)F)cc2)c1` [Example 6.82, 6-[(2,2-dimethylpropyl)(methyl)amino]-8-(3-methylphenyl)-7-[4-(trifluoromethyl)benzyl]-7H-purine-2-carboxylic acid], for which the half-inhibitory concentration (IC50) (Table 6) was found to be 899 nM.

`Cc1cnc(-c2nc3nc(C(=O)O)nc(N[C@H](C)C4CCC4)c3n2C[C@H]2CC[C@H](C)CC2)cc1C` [Example 15.21, 6-{[(1R)-1-cyclobutylethyl]amino}-8-(4,5-dimethylpyridin-2-yl)-7-[(trans-4-methylcyclohexyl)methyl]-7H-purine-2-carboxylic acid]: under setting [1], the half-maximal inhibitory concentration (IC50) turned out to be 8.44 nM.

For the molecule `CC(c1nc2nc(-c3noc(=O)[nH]3)nc(N[C@H](C)C3CCC3)c2n1C[C@H]1CC[C@H](C)CC1)C1CCOCC1` (stereo partly drawn) [Example 21.21, 3-(6-{[(1R)-1-cyclobutylethyl]amino}-7-[(trans-4-methylcyclohexyl)methyl]-8-[1-(tetrahydro-2H-pyran-4-yl)ethyl]-7H-purin-2-yl)-1,2,4-oxadiazol-5(4H)-one], the IC50 (Table 21) is 7.17 nM.

As to `C[C@@H](Nc1nc(-c2noc(=O)[nH]2)nc2nc(C(C)(C)O)n(C[C@H]3CC[C@H](C)CC3)c12)C1CCC1` [Example 22.44, 3-(6-{[(1R)-1-cyclobutylethyl]amino}-8-(1-hydroxy-1-methylethyl)-7-[(trans-4-methylcyclohexyl)methyl] -7H-purin-2-yl)-1,2,4-oxadiazol-5(4H)-one], the IC50 (Table 22) turned out to be 20.5 nM.

Turning to `C[C@@H](Nc1nc(C(=O)O)nc2nc(C3CCCC(=O)C3c3ccccc3)n(Cc3ccc(C(F)(F)F)cc3)c12)C1CCC1` (stereo partly drawn) [Example 21.11, 6-{[(1R)-1-cyclobutylethyl]amino}-8-(3-oxo-2-phenylcyclohexyl)-7-[4-(trifluoromethyl)benzyl]-7H-purine-2-carboxylic acid], the IC50 (Table 21) is 8.72 nM.

Consider `C[C@@H](Nc1nc(C(=O)O)nc2nc(N3CCN(C)CC3)n(Cc3ccc(C(F)(F)F)cc3)c12)C1CC1` [Example 9.5, 6-{[(1R)-1-cyclopropylethyl]amino}-8-(4-methylpiperazin-1-yl)-7-[4-(trifluoromethyl)benzyl]-7H-purine-2-carboxylic acid], for which the IC50 (Table 9) is 2350 nM.

For `CC(C)c1ccnc(-c2nc3nc(C(=O)O)nc(-c4ccc(F)cc4)c3n2C[C@H]2CC[C@H](C)CC2)c1` [Example 16.13, 6-(4-fluorophenyl)-7-[(trans-4-methylcyclohexyl)methyl]-8-[4-(1-methylethyl)pyridin-2-yl]-7H-purine-2-carboxylic acid], the IC50 under setting [1] amounted to 401 nM.

Take `CCN(CC1CCCCC1)c1nc2nc(-c3noc(=O)[nH]3)nc(N[C@H](C)C3CCC3)c2n1Cc1ccc(C(F)(F)F)cc1` [Example 9.95, 3-(6-{[(1R)-1-cyclobutylethyl]amino}-8-[(cyclohexylmethyl)(ethyl)amino]-7-[4-(trifluoromethyl)benzyl]-7H-purin-2-yl)-1,2,4-oxadiazol-5(4H)-one]: the IC50 (Table 9) amounted to 27.2 nM.

Regarding `CC(C)C1CCCN1c1nc2nc(-c3noc(=O)[nH]3)nc(N[C@H](C)C3CCC3)c2n1Cc1ccc(C(F)(F)F)cc1` (stereo partly drawn) [Example 9.86, 3-(6-{[(1R)-1-cyclobutylethyl]amino}-8-[2-(1-methylethyl)pyrrolidin-1-yl]-7-[4-(trifluoromethyl)benzyl]-7H-purin-2-yl)-1,2,4-oxadiazol-5(4H)-one], the IC50 (Table 9) is 10.2 nM.

Regarding `C[C@@H](Nc1nc(-c2noc(=O)[nH]2)nc2nc(NC(CO)c3ccccc3)n(C[C@H]3CC[C@H](C)CC3)c12)C1CCC1` (single isomer, unassigned) [Example 11.121], the IC50 (Table 11) came to 40.1 nM.

For the molecule `CC(=O)N1CCN(c2nc3nc(C(N)=O)nc(N[C@H](C)C4CCC4)c3n2C[C@H]2CC[C@H](C)CC2)[C@H](c2ccccc2)C1` [Example 17.11, 8-[(2R)-4-acetyl-2-phenylpiperazin-1-yl]-6-{[(1R)-1-cyclobutylethyl]amino}-7-[(trans-4-methylcyclohexyl)methyl]-7H-purine-2-carboxamide], for the setting “Table 17.2”, the concentration for half-maximal inhibition (IC50) turned out to be 6.33 nM.

Regarding `CC(c1ccccc1F)c1nc2nc(-c3noc(=O)[nH]3)nc(N[C@H](C)C3CCC3)c2n1C[C@H]1CC[C@H](C)CC1` (single isomer, unassigned) [Example 21.35], the IC50 (Table 21) is 2.03 nM.

With `C[C@@H]1CN(C(=O)C(C)(C)C)CCN1c1nc2nc(-c3noc(=O)[nH]3)nc(N[C@H](C)C3CCC3)c2n1C[C@H]1CC[C@H](C)CC1` [Example 17.15, 3-(6-{[(1R)-1-cyclobutylethyl]amino}-8-[(2R)-4-(2,2-dimethylpropanoyl)-2-methylpiperazin-1-yl]-7-[(trans-4-methylcyclohexyl)methyl]-7H-purin-2-yl)-1,2,4-oxadiazol-5(4H)-one], the concentration for half-maximal inhibition (IC50) (Table 17.2) is 4.3 nM.

Take `C[C@@H](Nc1nc(NCCO)nc2nc(N3CCOC[C@H]3c3ccccc3)n(C[C@H]3CC[C@H](C)CC3)c12)C1CCC1` [Example 13.1, 2-((6-(((R)-1-cyclobutylethyl)amino)-7-((trans-4-methylcyclohexyl)methyl)-8-((R)-3-phenylmorpholino)-7H-purin-2-yl)amino)ethanol]: the IC50 under setting [1] was found to be 885 nM.

In the case of `Cc1cccc(-c2nc(C(=O)O)nc3nc(-c4cc(C(C)C)ccn4)n(C[C@H]4CC[C@H](C)CC4)c23)c1` [Example 16.14, 7-[(trans-4-methylcyclohexyl)methyl]-8-[4-(1-methylethyl)pyridin-2-yl]-6-(3-methylphenyl)-7H-purine-2-carboxylic acid], the IC50 under setting [1] is 35.5 nM.

In the case of `C[C@@H](Nc1nc(N2CCC[C@]2(C)C(=O)O)nc2nc(N3CCOC[C@H]3c3ccccc3)n(C[C@H]3CC[C@H](C)CC3)c12)C1CCC1` [Example 13.7, 1-(6-{[(1R)-1-cyclobutylethyl]amino}-7-[(trans-4-methylcyclohexyl)methyl]-8-[(3R)-3-phenylmorpholin-4-yl]-7H-purin-2-yl)-2-methyl-D-proline], the concentration for half-maximal inhibition (IC50) under setting [1] was 224 nM.

For the molecule `C[C@@H](Nc1nc(-c2noc(=O)[nH]2)nc2nc(-c3cc(C(C)(C)O)c(F)cn3)n(C[C@H]3CC[C@H](C)CC3)c12)C1CCC1` [Example 15.9, 3-(6-(((R)-1-cyclobutylethyl)amino)-8-(5-fluoro-4-(2-hydroxypropan-2-yl)pyridin-2-yl)-7-((trans-4-methylcyclohexyl)methyl)-7H-purin-2-yl)-1,2,4-oxadiazol-5(4H)-one], the concentration for half-maximal inhibition (IC50) under setting [1] stood at 3.95 nM.

`C[C@@H](Nc1nc(-c2noc(=O)[nH]2)nc2nc(N(C)CC3CC3)n(C[C@H]3CC[C@H](C)CC3)c12)C1CCC1` [Example 11.42, 3-(6-{[(1R)-1-cyclobutylethyl]amino}-8-[(cyclopropylmethyl) (methyl)amino]-7-[(trans-4-methylcyclohexyl)methyl]-7H-purin-2-yl)-1,2,4-oxadiazol-5(2H)-one]: the IC50 (Table 11) turned out to be 5.34 nM.

With `CC(C)C1CCCCN1c1nc2nc(C(=O)O)nc(N[C@H](C)C3CCC3)c2n1Cc1ccc(C(F)(F)F)cc1` (stereo partly drawn) [Example 9.119, 6-{[(1R)-1-cyclobutylethyl]amino}-8-[2-(1-methylethyl)piperidin-1-yl]-7-[4-(trifluoromethyl)benzyl]-7H-purine-2-carboxylic acid], the IC50 (Table 9) turned out to be 9.16 nM.

The IC50 is the concentration needed to halve the response being measured.

Values taken from patent publication EP2951180B1, “2,6,7,8 SUBSTITUTED PURINES AS HDM2 INHIBITORS” (Merck Sharp & Dohme Corp., priority 2013, dated 2014).
